The term IC50 denotes the concentration that inhibits the measured activity by half.

In assay [1] the test system is IL-4 stimulated expression of CD23 in human Ramos B cells (JAK-1 and JAK-3). The experiment in a line: Assay for Ramos B-Cell Line Stimulated with IL-4 (CD23 upregulation, FACS). The class given is cell-based. Particulars: read-out: IC50, Example 41. An outline of the steps:
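Read-out: anti-CD23-PE flow cytometry on Ramos B cells, giving IC50. Cells (5×10^4 per point, RPMI + 5% serum) get compound or DMSO for 1 h at 37 °C, then IL-4 50 units/mL final for 20-24 h.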

Assay [2] has as its system Primary human T-cells. The experiment in a line: Primary Human T-Cell Proliferation Assay Stimulated with IL-2 (CellTiter-Glo). The class given is cell-based. The note with it: read-out: IC50, Example 42. An excerpt:
The activity of the active compounds of the invention may further be characterized by assaying the effect of the 2,4-substituted pyrimidinediamine compounds described herein on the proliferative response of primary human T-cells. In this assay, primary human T-cells derived from peripheral blood and pre-activated through stimulation of the T-cell receptor and CD28, proliferate in culture in response to the cytokine Interleukin-2 (IL-2). This proliferative response is dependent on the activation of JAK1 and JAK3 tyrosine kinases, which phosphorylate and activate the transcription factor Stat-5. The primary human T-cells are incubated with the 2,4-substituted pyrimidinediamine compounds in the presence of IL-2 for 72 hours and at the assay endpoint intracellular ATP concentrations are measured to assess cell viability. A reduction in cell proliferation compared to control conditions is indicative of inhibition of the JAK kinase pathway. An exemplary assay of this type is described in greater detail in Example 42
Primary human T-cells derived from peripheral blood and pre-activated through stimulation of the T-cell receptor and CD28, proliferate in vitro in response to the cytokine Interleukin-2 (IL-2). This proliferative response is dependent on the activation of JAK-1 and JAK-3 tyrosine kinases, which phosphorylate and activate the transcription factor Stat-5.
Human primary T cells were prepared as follows. Whole blood was obtained from a healthy volunteer, mixed 1:1 with PBS, layered on to Ficoll Hypaque (Amersham Pharmacia Biotech, Piscataway, NJ, Catalog #17-1440-03) in 2:1 blood/PBS:ficoll ratio and centrifuged for 30 min at 4° C. at 1750 rpm. The lymphocytes at the serum: ficoll interface were recovered and washed twice with 5 volumes of PBS. The cells were resuspended in Yssel's medium (Gemini Bio-products, Woodland, CA, Catalog #400-103) containing 40 U/mL recombinant IL2 (R and D Systems, Minneapolis, MN, Catalog #202-IL (20 rig)) and seeded into a flask pre-coated with 1 μg/mL anti-CD3 (BD Pharmingen, San Diego, CA, Catalog #555336) and 5 μg/mL anti-CD28 (Immunotech, Beckman Coulter of Brea CA, Catalog #IM1376). The primary T-cells were stimulated for 3-4 days, then transferred to a fresh flask and maintained in RPMI with 10% FBS and 40 U/mL IL-2.
Primary T-cells were washed twice with PBS to remove the IL-2 and resuspended in Yssel's medium at 2×10^6 cells/mL. 50 μL of cell suspension containing 80 U/mL IL-2 was added to each well of a flat bottom 96 well black plate. For the unstimulated control, IL-2 was omitted from the last column on the plate. Compounds were serially diluted in dimethyl sulfoxide (DMSO, 99.7% pure, cell culture tested, Sigma-Aldrich, St. Louis, MO, Catalog No. D2650) from 5 mM in 3-fold dilutions, and then diluted 1:250 in Yssel's medium. 50 μL of 2× compound was added per well in duplicate and the cells were allowed to proliferate for 72 hours at 37° C.
Proliferation was measured using CellTiter-Glo® Luminescent Cell Viability Assay (Promega), which determines the number of viable cells in culture based on quantitation of the ATP present, as an indicator of metabolically active cells. The substrate was thawed and allowed to come to room temperature. After mixing the Cell Titer-Glo reagent and diluent together, 100 μL was added to each well. The plates were mixed on an orbital shaker for two minutes to induce lysis and incubated at room temperature for an additional ten minutes to allow the signal to equilibrate. Detection was performed using a Wallac Victor2 1420 multilabel counter purchased from Perkin Elmer, Shelton, CT The IC50 calculated based on the results of this assay are provided in TABLE XII.
(In general: In ATP-based viability assays light output follows the ATP content of the culture.)

[3] abbreviates: Ramos B-cell line stimulated with IL-4, CD23 expression by FACS.
[4] abbreviates: primary human T-cell proliferation stimulated with IL-2.
Setting [5] is: Homo sapiens, T-cell, primary human T-cell proliferation stimulated with IL-2.
The mark [6] stands for this setting: Homo sapiens, Ramos, Ramos B-cell line stimulated with IL-4, CD23 expression by FACS.

Counter-ions that a name gives are not always drawn. Like-named read-outs stand apart in the source and are kept apart here.

Turning to `CC(Oc1ccc(Nc2nc(Nc3ccc(S(N)(=O)=O)cc3)ncc2F)cc1)C(N)=O` (racemic) [Compound I-116, Racemic N4-[4-(1-Aminocarbonyl)ethoxy]phenyl-N2-(4-aminosulfonyl)phenyl-5-fluoro-2,4-pyrimidinediamine], the IC50 in assay [1] (setting [3]) stood at 274 nM; in assay [2] (setting [4]), 972 nM.
As for `Cc1ccc(Nc2ncc(F)c(NC3CN(Cc4ccccc4)CCC3C)n2)cc1S(N)(=O)=O` (racemic) [VII-3, Racemic N2-(3-aminosulfonyl-4-methylphenyl)-N4-(1-benzyl-4-methylpiperidin-3-yl)-5-fluoro-2,4-pyrimidinediamine], the half-maximal inhibitory concentration (IC50) stood at 14100 nM in assay [1] (Ramos B cells stimulated with IL-4, CD23 expression by FACS) and 16500 nM in assay [2] (primary human T-cells stimulated with IL-2, proliferation).
On to `N#CCOc1cccc(Nc2nc(Nc3ccc(S(N)(=O)=O)cc3)ncc2F)c1` [Compound I-3, N2-(4-Aminosulfonyl)phenyl-N4-(3-cyanomethoxy)phenyl-5-fluoro-2,4-pyrimidinediamine], for which the IC50 in assay [1] (setting [3]) is 107 nM; in assay [2] (setting [4]) it was 987 nM.
On the same counts, the results for `COc1cc(Nc2ncc(F)c(Nc3cccc(OCC#N)c3)n2)ccc1S(N)(=O)=O` [Compound I-7, N2-(4-Aminosulfonyl-3-methoxy)phenyl-N4-(3-cyanomethoxy)phenyl-5-fluoro-2,4-pyrimidinediamine] are 120 nM and 502 nM.
On the same counts, the results for `N#CCOc1ccc(Nc2nc(Nc3ccc(S(N)(=O)=O)cc3)ncc2F)cc1` [Compound I-16, N2-(4-Aminosulfonyl)phenyl-N4-(4-cyanomethoxy)phenyl-5-fluoro-2,4-pyrimidinediamine] are 124 nM and 436 nM.
On the same counts, the results for `CN1CCN(S(=O)(=O)c2ccc(Nc3ncc(F)c(Nc4ccc(OCC#N)cc4)n3)cc2)CC1` [Compound I-18, N4-(4-Cyanomethoxy)phenyl-5-fluoro-N2-[4-(4-methylpiperazin-1-yl)sulfonyl]phenyl-2,4-pyrimidinediamine] are 283 nM and 1490 nM.
As for `COc1cc(Nc2ncc(F)c(Nc3ccc(OCC#N)c(C)c3)n2)ccc1S(N)(=O)=O` [Compound I-29, N2-(4-Aminosulfonyl-3-methoxy)phenyl-N4-(4-cyanomethoxy-3-methyl)phenyl-5-fluoro-2,4-pyrimidinediamine], the IC50 worked out at 120 nM in assay [1] (setting [3]) and 502 nM in assay [2] (setting [4]).
On the same counts, the results for `CCC(=O)NS(=O)(=O)c1cc(Nc2ncc(F)c(Nc3ccc(OCC#N)cc3)n2)ccc1C` [Compound I-30, N4-(4-Cyanomethyleneoxy)phenyl-5-fluoro-N2-(4-methyl-3-propionylaminosulfonyl)phenyl-2,4-pyrimidinediamine] are 5430 nM and 3570 nM.
For `CCC(=O)NS(=O)(=O)c1cc(Nc2ncc(F)c(Nc3ccc(OCC#N)c(F)c3)n2)ccc1C` [Compound I-49, N4-(4-Cyanomethoxy-3-fluorophenyl)-5-fluoro-N2-(4-methyl-3-propionylaminosulfonylphenyl)-2,4-pyrimidinediamine Sodium Salt], the IC50 came out at 2320 nM in assay [1] (Ramos B-cell line stimulated with IL-4, CD23 expression by FACS, sodium salt) and 5560 nM in assay [2] (setting [5]).
Take `COc1cc(Nc2ncc(F)c(Nc3ccc(OC(C)(C)C#N)cc3)n2)ccc1S(N)(=O)=O` [Compound I-77, N2-(4-Aminosulfonyl-3-methoxy)phenyl-N4-[4-(1-cyano-1-methyl)ethoxy]phenyl-5-fluoro-2,4-pyrimidinediamine]: the IC50 in assay [1] (setting [3]) is 147 nM; in assay [2] (setting [4]), 1620 nM.
In the same order, the values of `N#CCC(=O)Nc1ccc(Nc2nc(Nc3cccc(S(N)(=O)=O)c3)ncc2F)cc1` [Compound I-78, N2-(3-Aminosulfonylphenyl)-N4-[4-(N-cyanoacetyl)aminophneyl]-5-fluoro-2,4-pyrimidinediamine] are 635 nM and 1210 nM.
Turning to `Cc1ccc(Nc2ncc(F)c(Nc3ccc(NC(=O)CC#N)cc3)n2)cc1S(N)(=O)=O` [Compound I-79, N2-(3-Aminosulfonyl-4-methylphenyl)-N4-[4-(N-cyanoacetyl)aminophneyl]-5-fluoro-2,4-pyrimidinediamine], the half-inhibitory concentration (IC50) in assay [1] (setting [3]) stood at 461 nM; in assay [2] (setting [4]) it was 1060 nM.
On the same counts, the results for `Cc1cc(Nc2nc(Nc3cccc(S(N)(=O)=O)c3)ncc2F)ccc1NC(=O)CC#N` [Compound I-80, N2-(3-Aminosulfonylphenyl)-5-fluoroN4-[3-methyl-4-(N-cyanoacetyl)aminophneyl]-2,4-pyrimidinediamine] are 365 nM and 470 nM.
In the same order, the values of `Cc1cc(Nc2nc(Nc3ccc(C)c(S(N)(=O)=O)c3)ncc2F)ccc1NC(=O)CC#N` [Compound I-81, N2-(3-Aminosulfonyl-4-methylphenyl)-5-fluoroN4-[3-methyl4-(N-cyanoacetyl)aminophneyl]-2,4-pyrimidinediamine] are 360 nM and 957 nM.
With `N#CCC(=O)Nc1ccc(Nc2nc(Nc3cccc(S(N)(=O)=O)c3)ncc2F)cc1Cl` [Compound I-82, N2-(3-Aminosulfonylphenyl)-N4-[3-chloro-4-(N-cyanoacetyl)aminophneyl]-5-fluoro-2,4-pyrimidinediamine], the IC50 in assay [1] (setting [3]) was 244 nM; in assay [2] (setting [4]), 1380 nM.
In the same order, the values of `Cc1cc(Nc2nc(Nc3ccc(S(N)(=O)=O)cc3)ncc2F)cc(C)c1OCC(N)=O` [Compound I-114, N4-(4-Aminocarbonylmethoxy-3,5-dimethyl)phenyl-N2-(4-aminosulfonyl)phenyl-5-fluoro-2,4-pyrimidinediamine] are 448 nM and 6710 nM.
For the molecule `Cc1ccc(Nc2ncc(F)c(Nc3ccc(OCC(=O)N(C)C)cc3)n2)cc1S(N)(=O)=O` [Compound I-130, N2-(3-Aminosulfonyl-4-methylphenyl)-N4-(4-dimethylaminocarbonylmethoxyphenyl)-5-fluoro-2,4-pyrimidinediamine], the IC50 was 601 nM in assay [1] (setting [6]) and 1730 nM in assay [2] (setting [5]).
On the same counts, the results for `Cc1ccc(Nc2ncc(F)c(Nc3ccc(OCC(=O)N(C)C)c(Cl)c3)n2)cc1S(N)(=O)=O` [Compound I-133, N2-(3-Aminosulfonyl-4-methylphenyl)-N4-(3-chloro-4-dimethylaminocarbonylmethoxyphenyl)-5-fluoro-2,4-pyrimidinediamine] are 237 nM and 1350 nM.
With `NS(=O)(=O)c1ccc(Nc2ncc(F)c(Nc3ccc(-c4ccccn4)c(OCF)c3)n2)cc1` [Compound I-177, N2-(4-Aminosulfonylphenyl)-5-fluoro-N4-[4-(2-pyridinyl)-3-fluoromethyleneoxyphenyl]-2,4-pyrimidinediamine], the half-inhibitory concentration (IC50) in assay [2] (setting [4]) stood at 500 nM.
Take `C#CCNS(=O)(=O)c1ccc(Nc2nc(Nc3ccc(S(N)(=O)=O)cc3)ncc2F)cc1` [VI-77, N2-(4-Aminosulfonylphenyl)-5-fluoro-N4-[4-(prop-2-ynylaminosulfonyl)phenyl]-2,4-pyrimidinediamine]: the IC50 in assay [2] (Homo sapiens, T-cell, primary human T-cells stimulated with IL-2, proliferation) was found to be 43300 nM.

Values taken from patent US11827628B2, “Compositions and methods for inhibition of the JAK pathway” (Rigel Pharmaceuticals, Inc., priority 2005, dated 2023).
